Experimental data published in patent US5441984A, “Urea, thiourea and guanidine derivatives” (Eli Lilly and Company, priority 1994, dated 1995).
One block for each molecule: values may come before it.

Assays:
[1] = test system: rat
Protocol: Such results were calculated according to the following formula: [formula] PHGL =permeability of blood vessels (or blood flow) at high glucose levels (chamber on rat's back).
PC=permeability of blood vessels (or blood flow) at control state (prior to placing chamber on rat's back).
PTC=permeability of blood vessels (or blood flow) after test compound administered.

[2] = test system: diabetic rats; assay: In Vivo Vascular Permeability Study in diabetic rats; design: species or system rat; details: treated diabetic rats; 0.1% of diet, seven weeks; Mean ± SD; eight rats per group
Protocol: As confirmation of the in vivo results obtained above, a second in vivo experiment was conducted. In this in vivo test system the compound of Example 7 was fed to diabetic rats at 0.1% of the rat's diet for seven weeks. After seven weeks the rats were killed and vascular permeability in a number of different organ systems was compared. In Table III, Column 1 discloses the organ system examined, while Columns 2, 3 and 4 disclose the vascular permeability in μg of plasma/gram wet weight/minute for control (non-diabetic rats), untreated (diabetic rats/untreated) and treated (diabetic rats/treated), respectively (eight rats per each group).

[3] = target: Protein Kinase C mediated procollagenase synthesis and secretion; assay: In Vitro Inhibition of Procollagenase: PKC (PDBu) stimulated procollagenase synthesis and secretion in primary human dermal fibroblasts; format: cell-based; design: unit not given here; details: 2.0% FBS used to supplement DME; 10 nM PDBu, 72 hours
Source text: Collagenase and stromelysin are matrix metalloendoproteases which are known to be synthesized and secreted by a number of cell types in response to Protein Kinase C (PKC) activation. Matrix metalloendoproteases are responsible for the degradation of extracellular matrix molecules in the basement membrane and play a role in cell invasiveness, tissue remodeling alterations in the microvasculature (increased capillary permeability and uncontrolled cell growth) and normal matrix turnover. Alterations in the microvasculature are hallmarks of diabetic complications such as kidney failure, blindness and neuropathy. Accordingly, the ability to modulate PKC driven pathways, such as the synthesis and secretion of the […] enzyme precursor, procollagenase, should provide pharmacological advantages in treating diabetic complications.
The compounds of the present invention were evaluated for their ability to antagonize Protein Kinase C mediated procollagenase synthesis and secretion according to the following methodology.
Stimulation of the enzyme Protein Kinase C with 4-β-phorbol-12,13-dibutyrate (PDBu) leads human fibroblasts and other cells of endodermal, mesodermal and ectodermal origin to synthesize and secrete the enzyme precursor procollagenase. […]
9. After washing, the plates were read. […]

Molecule: CSc1ccc(NC(=O)NCc2cc(C(C)(C)C)c(O)c(C(C)(C)C)c2)cc1 [Example 6, N-[[3,5-Bis(1,1-dimethylethyl)-4-hydroxyphenyl]methyl]-N'-[4-(methylthio)phenyl]urea]
% Normalization of Diabetic State, Blood Flow [1]: 35.48%
% Normalization of Diabetic State, Blood Vessel Permeability [1]: 66.12%

Molecule: COc1c(C(C)(C)C)cc(CNC(=O)Nc2ccc(SC)cc2)cc1C(C)(C)C [Example 7]
vascular permeability, aorta [2]: 109 ± 65 μg plasma/g wet weight/min
vascular permeability, brain [2]: 26 ± 11 μg plasma/g wet weight/min
vascular permeability, heart [2]: 547 ± 181 μg plasma/g wet weight/min
vascular permeability, kidney [2]: 1208 ± 293 μg plasma/g wet weight/min
vascular permeability, muscle [2]: 59 ± 13 μg plasma/g wet weight/min
vascular permeability, ocular anterior uvea [2]: 373 ± 105 μg plasma/g wet weight/min
vascular permeability, ocular posterior uvea [2]: 323 ± 91 μg plasma/g wet weight/min
vascular permeability, retina [2]: 62 ± 18 μg plasma/g wet weight/min
vascular permeability, sciatic nerve [2]: 59 ± 18 μg plasma/g wet weight/min

Molecule: CSc1ccccc1NC(=O)NCc1cc(C(C)(C)C)c(O)c(C(C)(C)C)c1 [Example 9, N-[[3,5-Bis(1,1-dimethylethyl)-4-hydroxyphenyl]methyl]-N'-[2-(methylthio)phenyl]urea]
% Normalization of Diabetic State, Blood Flow [1]: 23.29%
% Normalization of Diabetic State, Blood Vessel Permeability [1]: 8.45%

Molecule: CC(C)(C)c1cc(CNC(=S)Nc2ccccc2)cc(C(C)(C)C)c1O [Example 10, N-[[3,5-Bis(1,1-dimethylethyl)-4-hydroxyphenyl]methyl]-N'-phenylthiourea]
% Normalization of Diabetic State, Blood Flow [1]: 17.56%
% Normalization of Diabetic State, Blood Vessel Permeability [1]: 1.99%

Molecule: CSc1cccc(NC(=O)NCc2cc(C(C)(C)C)c(O)c(C(C)(C)C)c2)c1 [Example 11, N-[[3,5-Bis(1,1-dimethylethyl)-4-hydroxyphenyl]methyl]-N'-[3-(methylthio)phenyl]urea]
% Normalization of Diabetic State, Blood Flow [1]: 21.50%
% Normalization of Diabetic State, Blood Vessel Permeability [1]: -30.34%

IC50 [3]: 8.6
Molecule: N-[[3-(methylthiophenyl)-4-hydroxy-5-(1,1-dimethylethyl)phenyl]methyl]-N'-[4-(methylthio)phenyl]urea [Example 13]
